According to patent US9095138B2, “Isoxazoline insecticides” (E.I. du Pont de Nemours and Company, priority 2007, dated 2015):

Key:
Format in all cases: in vivo
[1] = system: western flower thrips (Frankliniella occidentalis); assay: Test E: control of western flower thrips on Soleil bean plant, contact and/or systemic; conditions: adult thrips, assessed after 6 days, replicated three times
Experimental: (§1) Test compounds were formulated using a solution containing 10% acetone, 90% water and 300 ppm X-77™ Spreader Lo-Foam Formula non-ionic surfactant containing alkylarylpolyoxyethylene, free fatty acids, glycols and isopropanol (Loveland Industries, Inc. Greeley, Colo., USA). The formulated compounds were applied in 1 mL of liquid through a SUJ2 atomizer nozzle with ⅛ JJ custom body (Spraying Systems Co. Wheaton, Ill., USA) positioned 1.27 cm (0.5 inches) above the top of each test unit. All experimental compounds in these tests were sprayed at 50 ppm, and the test was replicated three times. After spraying of the formulated test compound, each test unit was allowed to dry for 1 h and then a black, screened cap was placed on top. The test units were held for 6 days in a growth chamber at 25° C. and 70% relative humidity. Plant feeding damage was then visually assessed based on foliage consumed and a pest mortality rating was also counted and calculated for each test unit.
For evaluating control of the western flower thrips (Frankliniella occidentalis) through contact and/or systemic means, the test unit consisted of a small open container with a 5-7 day old Soleil Bean plant inside. Test compounds were formulated and sprayed as described for Test A. All experimental compounds in these tests were sprayed at 250 or 50 ppm as noted, and the test was replicated three times. After spraying, the test units were allowed to dry for 1 hour and then 22-27 adult thrips were added to each unit and then a black, screened cap was placed on top. The test units were held for 6 days at 25° C. and 45-55% relative humidity. A mortality rating was assessed along with a plant damage rating for each test unit.

[2] = system: diamondback moth (Plutella xylostella); assay: Test A: control of diamondback moth on radish plant, foliar spray; conditions: sprayed at 50 ppm; neonate larvae on radish; assessed after 6 days; replicated three times
Description: For evaluating control of diamondback moth (Plutella xylostella) the test unit consisted of a small open container with a 12-14-day-old radish plant inside. This was pre-infested with about 50 neonate larvae that were dispensed into the test unit via corn-cob grits using a bazooka inoculator. The larvae moved onto the test plant after being dispensed into the test unit.
as §1

[3] = system: fall armyworm (Spodoptera frugiperda); assay: Test B: control of fall armyworm on corn (maize) plant, foliar spray; conditions: sprayed at 50 ppm; 1-day-old larvae on corn; replicated three times
Experimental: as §1
For evaluating control of fall armyworm (Spodoptera frugiperda) the test unit consisted of a small open container with a 4-5-day-old corn (maize) plant inside. This was pre-infested (using a core sampler) with 10-15 1-day-old larvae on a piece of insect diet. Test compounds were formulated and sprayed at 50 ppm as described for Test A and replicated three times. After spraying, the test units were maintained in a growth chamber and then the control efficacy was rated for each test unit as described for Test A.

Compound | control efficacy (feeding damage or mortality): very good to excellent levels ([1]; sprayed at 50 ppm) | control efficacy (feeding damage or mortality): very good to excellent levels ([1]; sprayed at 250 ppm) | control efficacy (feeding damage or mortality): very good to excellent levels [2] | control efficacy (feeding damage or mortality): very good to excellent levels [3]
C[C@@H](NC(=O)c1ccc(C2=NOC(c3cc(C(F)(F)F)cc(C(F)(F)F)c3)(C(F)(F)F)C2)c2ccccc12)C(=O)NC1CC1 (stereo partly shown) [Compound 64] | 20% or less feeding damage or 80% or more mortality | 20% or less feeding damage or 80% or more mortality | 20% or less feeding damage or 80% or more mortality | 20% or less feeding damage or 80% or more mortality
C[C@@H](NC(=O)c1ccc(C2=NOC(c3cc(Cl)cc(C(F)(F)F)c3)(C(F)(F)F)C2)c2ccccc12)C(N)=O (stereo partly shown) [Compound 74] | 20% or less feeding damage or 80% or more mortality | 20% or less feeding damage or 80% or more mortality | 20% or less feeding damage or 80% or more mortality | 20% or less feeding damage or 80% or more mortality
NC(=O)CNC(=O)c1ccc(C2=NOC(c3cc(C(F)(F)F)cc(C(F)(F)F)c3)(C(F)(F)F)C2)c2ccccc12 (stereo not shown) [Compound 70] | 20% or less feeding damage or 80% or more mortality |  | 20% or less feeding damage or 80% or more mortality | 20% or less feeding damage or 80% or more mortality
C[C@@H](NC(=O)c1ccc(C2=NOC(c3cc(C(F)(F)F)cc(C(F)(F)F)c3)(C(F)(F)F)C2)c2ccccc12)C(N)=O (stereo partly shown) [Compound 65] | 20% or less feeding damage or 80% or more mortality |  | 20% or less feeding damage or 80% or more mortality | 20% or less feeding damage or 80% or more mortality
O=C(CNC(=O)c1ccc(C2=NOC(c3cc(Cl)cc(Cl)c3)(C(F)(F)F)C2)c2ccccc12)NC1CCCC1 (stereo not shown) [Compound 52] |  |  | 20% or less feeding damage or 80% or more mortality | 20% or less feeding damage or 80% or more mortality
O=C(NCC1CCCO1)c1ccc(C2=NOC(c3cccc(C(F)(F)F)c3)(C(F)(F)F)C2)c2ccccc12 (stereo not shown) [Compound 20] |  |  | 20% or less feeding damage or 80% or more mortality | 20% or less feeding damage or 80% or more mortality
O=C(CNC(=O)c1ccc(C2=NOC(c3cccc(Br)c3)(C(F)(F)F)C2)c2ccccc12)NCC1CC1 (stereo not shown) [Compound 56] |  |  | 20% or less feeding damage or 80% or more mortality | 20% or less feeding damage or 80% or more mortality
O=C(NCC1CCCO1)c1ccc(C2=NOC(c3cc(C(F)(F)F)cc(C(F)(F)F)c3)(C(F)(F)F)C2)c2ccccc12 (stereo not shown) [Compound 27] |  |  | 20% or less feeding damage or 80% or more mortality | 20% or less feeding damage or 80% or more mortality
O=C(O)CNC(=O)c1ccc(C2=NOC(c3cc(C(F)(F)F)cc(C(F)(F)F)c3)(C(F)(F)F)C2)c2ccccc12 (racemic) [Compound 15] |  |  | 20% or less feeding damage or 80% or more mortality | 20% or less feeding damage or 80% or more mortality
CC(NC(=O)c1ccc(C2=NOC(c3cc(Cl)cc(C(F)(F)F)c3)(C(F)(F)F)C2)c2ccccc12)C(=O)O (mixture of isomers) [Compound 32] |  |  | 20% or less feeding damage or 80% or more mortality | 20% or less feeding damage or 80% or more mortality
O=C(NCCn1cncn1)c1ccc(C2=NOC(c3cccc(C(F)(F)F)c3)(C(F)(F)F)C2)c2ccccc12 (stereo not shown) [Compound 18] |  |  | 20% or less feeding damage or 80% or more mortality | 20% or less feeding damage or 80% or more mortality
O=C(CNC(=O)c1ccc(C2=NOC(c3cccc(C(F)(F)F)c3)(C(F)(F)F)C2)c2ccccc12)NC1CC1 (stereo not shown) [Compound 54] |  |  | 20% or less feeding damage or 80% or more mortality | 20% or less feeding damage or 80% or more mortality
CCC(CO)NC(=O)c1ccc(C2=NOC(c3cccc(C(F)(F)F)c3)(C(F)(F)F)C2)c2ccccc12 (mixture of isomers) [Compound 16] |  |  | 20% or less feeding damage or 80% or more mortality | 20% or less feeding damage or 80% or more mortality
O=C(NCC(=O)N1CCCC1C(F)(F)F)c1ccc(C2=NOC(c3cc(Cl)cc(Cl)c3)(C(F)(F)F)C2)c2ccccc12 (stereo not shown) [Compound 91] |  |  | 20% or less feeding damage or 80% or more mortality | 20% or less feeding damage or 80% or more mortality
O=C(CNC(=O)c1ccc(C2=NOC(c3cc(Cl)cc(Cl)c3)(C(F)(F)F)C2)c2ccccc12)NC1CCCCC1 (stereo not shown) [Compound 51] |  |  | 20% or less feeding damage or 80% or more mortality | 20% or less feeding damage or 80% or more mortality
Cn1ccc2c(C(=O)NCC[S+](C)[O-])ccc(C3=NOC(c4cc(Cl)cc(Cl)c4)(C(F)(F)F)C3)c21 (stereo not shown) [Compound 111] |  |  | 20% or less feeding damage or 80% or more mortality | 20% or less feeding damage or 80% or more mortality
CC(NC(=O)c1ccc(C2=NOC(c3cc(Br)cc(C(F)(F)F)c3)(C(F)(F)F)C2)c2ccccc12)C(=O)O (mixture of isomers) [Compound 38] |  |  | 20% or less feeding damage or 80% or more mortality | 20% or less feeding damage or 80% or more mortality
O=C(NCCCSCC(F)(F)F)c1ccc(C2=NOC(c3cccc(C(F)(F)F)c3)(C(F)(F)F)C2)c2ccccc12 (racemic) [Compound 21] |  |  | 20% or less feeding damage or 80% or more mortality | 20% or less feeding damage or 80% or more mortality
CC1(C)OCC(CNC(=O)c2ccc(C3=NOC(c4cccc(C(F)(F)F)c4)(C(F)(F)F)C3)c3ccccc23)O1 (stereo not shown) [Compound 19] |  |  | 20% or less feeding damage or 80% or more mortality | 20% or less feeding damage or 80% or more mortality
O=C(NCC(F)(F)F)[C@H]1CCCN1C(=O)c1ccc(C2=NOC(c3cc(Cl)cc(Cl)c3)(C(F)(F)F)C2)c2ccccc12 (stereo partly shown) [Compound 102] |  |  | 20% or less feeding damage or 80% or more mortality | 20% or less feeding damage or 80% or more mortality
O=C(CNC(=O)c1ccc(C2=NOC(c3cccc(OC(F)(F)F)c3)(C(F)(F)F)C2)c2ccccc12)NCC1CC1 (stereo not shown) [Compound 60] |  |  | 20% or less feeding damage or 80% or more mortality | 20% or less feeding damage or 80% or more mortality
O=C(NCCn1ccc(C(F)(F)F)n1)c1ccc(C2=NOC(c3cccc(C(F)(F)F)c3)(C(F)(F)F)C2)c2ccccc12 (stereo not shown) [Compound 17] |  |  | 20% or less feeding damage or 80% or more mortality | 20% or less feeding damage or 80% or more mortality
O=C(NCC(Cl)CCCCl)c1ccc(C2=NOC(c3cc(Cl)cc(Cl)c3)(C(F)(F)F)C2)c2ccccc12 (mixture of isomers) [Compound 14] |  |  | 20% or less feeding damage or 80% or more mortality | 20% or less feeding damage or 80% or more mortality
